# Experimental data reported in patent US8633224B2, “Hemiasterlin derivatives and uses thereof in the treatment of cancer” (Eisai Co., Ltd., priority 2002, dated 2014).
# Test system: human cancer cells
# Test: in vitro and in vivo screening panel (growth inhibition, MDR, cytotoxicity, mouse serum stability, mitotic block reversibility, tumor xenograft)
# Conditions: properties (i)-(vii) of b364/b365
# Description: In certain embodiments, compounds of the invention were tested for in vitro and in vivo activity. Screening methods included standard in vitro cell growth inhibition assays using a panel of human cancer cell lines, a U937 (ATCC accession number CRL 1593) mitotic block reversibility assay, mouse serum stability assay, MDR assay, and cytotoxicity assay. In certain other embodiments, compounds of the invention were evaluated in tumor xenograft in vivo growth inhibition assays.
# Cultured human cancer cells (including breast, prostate, colon, lung, leukemia, lymphoma and other) were plated in 96-well plates and grown in the continuous presence of test compounds for 72 or 96 hours. The human cell lines used in this cell growth inhibition assay, include, but are not limited to, the following solid tumor cell lines and non-solid tumor cell lines: DLD-1 colon cancer cells (ATCC accession number CCL-221), DU 145 prostate cancer cells (ATCC accession number HTB-81), H460 non small cell lung cancer, HCT-15 colon cancer cells (ATCC accession number CCL-225), HEL erythroleukemia cells, HL-60 promyelocytic leukemia cells (ATCC accession number CCL-240), K562 leukemia (ATCC accession number CCL-243), LOX melanoma, MDA-MB-435 breast cancer cells, U937 lymphoma cells (ATCC accession number CRL 1593), PANC-1 pancreatic cancer (ATCC accession number CRL-1469), HCC-2998 colon cancer (NCI-Frederick Cancer DCTD Tumor/Cell Line Repository), HCT 116 colon cancer (ATCC accession number CCL-247), HT-29 colon cancer (ATCC accession number HTB-38), LoVo colon cancer (ATCC accession number CCL-229), SW-480 colon cancer (ATCC accession number CCL-228), SW-620 colon cancer (ATCC accession number CCL-227) and COLO-205 colon cancer (ATCC accession number CCL-222). For monolayer cultures, growth was assessed using modifications (Amin et al, Cancer Res., 47: 6040-6045, 1987) of a methylene blue-based microculture assay (Finlay et al, Anal. Biochem., 139: 272-277, 1984). Absorbances at 620 and 405 nm were measured on a Titertek Multiscan MCC/340 plate reader and absorbances at 405 nm were subtracted from absorbances at 620 nm. For suspension cultures, growth was assessed using a 3-(4,5-dimethylthiazol-2-yl)-2,5-diphenyl tetrazolium bromide-based assay (Mosmann et al, J. Immunol. Methods, 65: 55-63, 1983) modified as follows. After 4 days of incubation with test compounds, sterile-filtered 3-(4,5-dimethylthiazol-2-yl)-2,5-diphenyl tetrazolium bromide was added to each well (final concentration, 0.5 mg/ml), and plates were incubated at 37° C. for 4 h. Acid-isopropanol (0.1 N HCl in isopropanol, […]) was then added to each well, and the resultant formazan crystals were dis-solved by gentle mixing. Absorbances at 540 nm were measured on a Titertek Multiscan MCC/340 plate reader.
# Briefly, U937 (ATCC accession number […]) were exposed to various concentration of compounds for 12 hours. The compounds were washed away and the cells were allowed to recover for an additional 10 hours. The cells were collected by centrifugation and fixed overnight in 70% ethanol. The cells were washed in PBS, incubated with RNase A and stained with propidium iodide. Single channel flow cytometry was performed on a Becton Dickinson FACScan; the collection and analysis of data were performed using Becton Dickinson CELLQuest software. Doublet events were eliminated from analyses by proper gating on FL2-W/FL2-A primary plots before histogram analysis of DNA content (measured as FL2-A).
# This is a modification of the standard cell growth inhibition assays described above. Two cultured human cancer cell lines were used: human uterine sarcoma MDR negative MES-SA cells (ATCC accession number CRL-1976) and human uterine sarcoma MDR-positive MES-SA/Dx5 cells (ATCC accession number CRL-1977). Cells were plated in a 96-well microtiter plates at a density of 7500 cells/well. The cells were incubated in the presence or absence of test compounds for 96 hours.
row,Structure (SMILES),"desired properties (growth inhibition IC50, resistance ratio, cytotoxicity in non-dividing normal cells, mouse serum stability, mitotic block reversibility, tumor regression, tumor growth inhibition)"
1,"C/C(=C\[C@H](C(C)C)N(C)C(=O)[C@@H](NC(=O)[C@H]1CCCCN1C(C)C(C)C)C(C)(C)C)C(=O)O (single isomer, unassigned) [ER-808662]",exhibiting desired properties
2,CCC(C)N1CCCCC1C(=O)NC(C(=O)N(C)[C@H](/C=C(\C)C(=O)O)C(C)C)C(C)(C)C (stereo in doubt) [ER-808368],exhibiting desired properties
3,CCC(C)N1CCCCC1C(=O)NC(C(=O)N(C)[C@H](/C=C(\C)C(=O)O)C(C)C)C(C)C (stereo in doubt) [ER-808824],exhibiting desired properties
4,CN[C@H](C(=O)N[C@H](C(=O)N(C)[C@H](/C=C(\C)C(=O)N1CCC[C@H]1C(=O)OC)C(C)C)C(C)(C)C)C(C)(C)c1ccccc1 [ER-805736],exhibiting desired properties
5,CN[C@H](C(=O)N[C@H](C(=O)N(C)[C@H](/C=C(\C)C(=O)O)C(C)C)C(C)(C)C)C(C)(C)c1ccc(OCc2ccccc2)cc1 [ER-805913],exhibiting desired properties
6,CN[C@H](C(=O)N[C@H](C(=O)N(C)[C@H](CN(C)CC(=O)N1CCC[C@H]1C(=O)OC)C(C)C)C(C)(C)C)C(C)(C)c1ccccc1 [ER-806925],exhibiting desired properties
7,C/C(=C\[C@H](C(C)C)N(C)C(=O)[C@@H](NC(=O)[C@@H]1CCCCN1C)C(C)(C)C)C(=O)O [ER-807102],exhibiting desired properties
8,CN[C@H](C(=O)N[C@H](C(=O)N(C)[C@H](CN1CCC[C@H]1C(=O)N1CCC[C@H]1C(N)=O)C(C)C)C(C)(C)C)C(C)(C)c1ccccc1 [ER-807328],exhibiting desired properties
9,CCC(CC)(NC)C(=O)N[C@H](C(=O)N(C)[C@H](/C=C(\C)C(=O)O)C(C)C)C(C)(C)C [ER-807850],exhibiting desired properties
10,CC(C)OC(=O)[C@@H]1CCCN1C(=O)[C@@H]1CCCN1C[C@H](C(C)C)N(C)C(=O)[C@@H](NC(=O)[C@H]1CCCCN1C)C(C)(C)C [ER-807904],exhibiting desired properties
11,C/C(=C\[C@H](C(C)C)N(C)C(=O)[C@@H](NC(=O)[C@H]1CCCCN1C(C)C)C(C)(C)C)C(=O)O [ER-807974],exhibiting desired properties

# Test system: human lung carcinoma, human colon carcinoma and human melanoma
# Test: not given
# Conditions: cited from earlier work
row,Structure (SMILES),antitumor activity against several cell lines
1,CN[C@H](C(=O)N[C@H](C(=O)N(C)[C@H](/C=C(\C)C(=O)O)C(C)C)C(C)(C)C)C(C)(C)c1cn(C)c2ccccc12 [Hemiasterlin],exhibited antitumor activity
